A short description of data set [1]: Molar enthalpy of transition or fusion. To be noted: Crystal; DSC.
The conditions of data set [2]: Crystal; DTA.

± gives the expanded uncertainty stated by the source.

As for `CC(=O)c1ccc(C)c2ccccc12` [1-(4-methyl-1-naphthyl) ethanone], the “Molar enthalpy of transition or fusion” value in data set [1] turned out to be 3.47 ± 0.112 kcal/mol. In addition, in data set [2], the Normal melting temperature came out at 312.00 ± 4 °C.

Source of the values: the NIST ThermoML archive (doi:10.1016/j.fluid.2009.10.015).
